According to patent US20250051363A1, “Substituted Pyrazolopyridines” (Neuro3 Therapeutics, Inc., priority 2023, published 2025):

Each compound was assayed against LRRK2 wild-type (Homo sapiens (Human), UniProt Q5S007) (assay: LanthaScreen LRRK2 Biochemical Activity Assay). Settings: human recombinant LRRK2 (amino acids 970-2527) wild-type, ATP 57 μM, TR-FRET; read-out: IC50 (nM), inhibition of LRRK2 wild-type kinase activity.
Chain of LRRK2 wild-type (Q5S007 970-2527): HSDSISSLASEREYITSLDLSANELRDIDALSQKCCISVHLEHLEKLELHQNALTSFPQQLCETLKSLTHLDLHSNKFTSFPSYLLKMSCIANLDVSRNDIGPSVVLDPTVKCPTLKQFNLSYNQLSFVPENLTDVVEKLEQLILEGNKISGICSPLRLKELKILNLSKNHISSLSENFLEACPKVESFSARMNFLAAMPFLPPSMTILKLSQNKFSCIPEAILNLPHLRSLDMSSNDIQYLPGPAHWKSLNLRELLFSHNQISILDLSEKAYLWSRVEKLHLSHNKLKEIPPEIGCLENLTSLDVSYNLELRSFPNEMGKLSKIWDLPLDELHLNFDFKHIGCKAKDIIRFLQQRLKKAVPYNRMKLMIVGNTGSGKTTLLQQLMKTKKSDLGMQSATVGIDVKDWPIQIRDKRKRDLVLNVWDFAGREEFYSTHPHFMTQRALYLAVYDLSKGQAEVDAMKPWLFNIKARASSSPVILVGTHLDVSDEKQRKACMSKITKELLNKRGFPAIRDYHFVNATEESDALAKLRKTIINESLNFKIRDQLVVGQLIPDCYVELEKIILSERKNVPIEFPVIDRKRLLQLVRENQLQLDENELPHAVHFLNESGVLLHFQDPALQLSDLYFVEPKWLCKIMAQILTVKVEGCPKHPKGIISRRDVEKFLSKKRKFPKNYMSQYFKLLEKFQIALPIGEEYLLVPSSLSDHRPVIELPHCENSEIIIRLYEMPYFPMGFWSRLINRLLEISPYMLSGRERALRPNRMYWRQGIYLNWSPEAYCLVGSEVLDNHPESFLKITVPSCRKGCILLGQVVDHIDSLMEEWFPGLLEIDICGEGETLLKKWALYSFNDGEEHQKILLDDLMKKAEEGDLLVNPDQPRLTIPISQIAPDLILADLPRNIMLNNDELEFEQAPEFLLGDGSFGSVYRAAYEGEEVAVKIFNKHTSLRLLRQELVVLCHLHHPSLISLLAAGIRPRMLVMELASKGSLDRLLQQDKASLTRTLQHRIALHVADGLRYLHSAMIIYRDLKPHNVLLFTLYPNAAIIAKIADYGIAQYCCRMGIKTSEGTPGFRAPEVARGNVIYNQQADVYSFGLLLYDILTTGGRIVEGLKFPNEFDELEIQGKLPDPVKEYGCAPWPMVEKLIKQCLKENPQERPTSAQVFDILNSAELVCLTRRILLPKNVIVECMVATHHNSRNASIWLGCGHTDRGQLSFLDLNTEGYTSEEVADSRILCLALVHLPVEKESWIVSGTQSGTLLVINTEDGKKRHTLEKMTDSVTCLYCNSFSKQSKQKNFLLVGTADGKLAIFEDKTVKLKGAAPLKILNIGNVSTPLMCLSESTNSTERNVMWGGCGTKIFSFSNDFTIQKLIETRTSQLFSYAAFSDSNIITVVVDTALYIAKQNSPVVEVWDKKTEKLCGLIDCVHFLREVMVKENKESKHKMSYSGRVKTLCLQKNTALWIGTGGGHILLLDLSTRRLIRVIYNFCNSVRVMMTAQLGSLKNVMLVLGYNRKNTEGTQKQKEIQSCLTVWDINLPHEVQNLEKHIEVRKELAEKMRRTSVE
Procedure: The ability of a compound of Formula (I) to inhibit LRRK2 kinase activity is measured using a LanthaScreen™ kinase activity assay. In general, in a LanthaScreen™ kinase activity assay, kinase, fluorescein-labeled substrate, and ATP are allowed to react. Then EDTA (to stop the reaction) and terbium-labeled antibody (to detect phosphorylated product) are added. In a LanthaScreen™ kinase reaction, the antibody associates with the phosphorylated fluorescein labeled substrate resulting in an increased TR-FRET value. The TR-FRET value is a dimensionless number that is calculated as the ratio of the acceptor (fluorescein) signal to the donor (terbium) signal. The amount of antibody that is bound to the tracer is directly proportional to the amount of phosphorylated substrate present, and in this manner, kinase activity can be detected and measured by an increase in the TR-FRET value. Accordingly, in this Example, enzyme reactions are carried out in a kinase reaction buffer in the presence or absence of representative compounds of Formula (I) at various concentrations in 384-well plate at room temperature for 60 minutes. The kinase reaction buffer contains human recombinant LRRK2 protein (amino acids 970-2527, 5 nM), ATP (57 μM for LRRK2 wild-type, 134 μM for G2019S mutant protein), Fluorescein-LRRKtide substrate (0.4 mM), 50 mM Tris pH 7.5, 10 mM MgCl2, 1 mM EGTA, 0.01% Brij™-35, and 2 mM DTT. The final reaction volume for each reaction is 10 μL. The reactions are initated by adding the substrate and stopped by the addition of 10 μL of a TR-FRET dilution buffer supplemented with a kinase quench buffer (10 mM EDTA final) and Tb-anti-pLRRKtide (2 nM final). The plate is further incubated at room temperature for another 60 minutes, and the fluorescent signals are read on an EnVision® multilabel plate reader (PerkinElmer, Waltham, MA) with excitation at 340 nm and emission at 495 and 520 nm. The assay signal is determined as a ratio of FRET-specific signal measured with emission filter at 520 nm to that of the signal measured with Tb-specific emission filter at 495 nm. IC50 values for compound-mediated enzyme inhibition are calculated using appropriate programs in GraphPad Prism software by plotting the logarithm of the compound concentrations versus percent inhibition. All reagents are purchased from Thermo Fisher Scientific.
Clc1ccn2ncc(-c3cccc(C4CCCNC4)n3)c2c1 (racemic) [Example 5, Rac-5-chloro-3-[6-(3-piperidyl)-2-pyridyl]pyrazolo[1,5-a]pyridine] gave an IC50 of 11 to 100 nM. With Clc1ccn2ncc(-c3cccc([C@@H]4CCCNC4)n3)c2c1 (single isomer, unassigned) [Example 6, (+)-5-chloro-3-(6-(piperidin-3-yl)pyridin-2-yl)pyrazolo[1,5-a]pyridine] the IC50 was 101 to 400 nM. Clc1ccn2ncc(-c3cccc([C@H]4CCCNC4)n3)c2c1 (single isomer, unassigned) [Example 7, (−)-5-chloro-3-(6-(piperidin-3-yl)pyridin-2-yl)pyrazolo[1,5-a]pyridine] showed an IC50 of at most 10 nM. With c1cc(-c2cnn3ccccc23)nc(C2CCNCC2)c1 [Example 1, 3-[6-(4-piperidyl)-2-pyridyl]pyrazolo[1,5-a]pyridine] the IC50 was 101 to 400 nM. Work on CN1CCC(c2cccc(-c3cnn4ccccc34)n2)CC1 [Example 2, 3-[6-(1-methyl-4-piperidyl)-2-pyridyl]pyrazolo[1,5-a]pyridine] yielded an IC50 of 101 to 400 nM. Compound c1cc(-c2cnn3ccccc23)nc(C2CCNC2)c1 (centres unmarked) [Example 3, 3-(6-pyrrolidin-3-yl-2-pyridyl)pyrazolo[1,5-a]pyridine] has an IC50 of 101 to 400 nM. With Clc1ccn2ncc(-c3cccc(C4CCNC4)n3)c2c1 (centres unmarked) [Example 4, 5-chloro-3-(6-(pyrrolidin-3-yl)pyridin-2-yl)pyrazolo[1,5-a]pyridine] the IC50 was 11 to 100 nM. Brc1ccn2ncc(-c3cccc(C4CCCNC4)n3)c2c1 (centres unmarked) [Example 8, 5-bromo-3-[6-(3-piperidyl)-2-pyridyl]pyrazolo[1,5-a]pyridine] gave an IC50 of 11 to 100 nM. Work on Cc1ccn2ncc(-c3cccc(C4CCCNC4)n3)c2c1 (centres unmarked) [Example 9, 5-methyl-3-[6-(3-piperidyl)-2-pyridyl]pyrazolo[1,5-a]pyridine] yielded an IC50 of 11 to 100 nM. FC(F)(F)c1ccn2ncc(-c3cccc(C4CCCNC4)n3)c2c1 (centres unmarked) [Example 10, 3-[6-(3-piperidyl)-2-pyridyl]-5-(trifluoromethyl)pyrazolo[1,5-a]pyridine] showed an IC50 of 11 to 100 nM. In the case of COc1ccn2ncc(-c3cccc(C4CCCNC4)n3)c2c1 (centres unmarked) [Example 11, 5-methoxy-3-[6-(3-piperidyl)-2-pyridyl]pyrazolo[1,5-a]pyridine], the IC50 is reported as 11 to 100 nM. Oc1ccn2ncc(-c3cccc(C4CCCNC4)n3)c2c1 (centres unmarked) [Example 12, 3-(6-(piperidin-3-yl)pyridin-2-yl)pyrazolo[1,5-a]pyridin-5-ol] was tested, and the IC50 was 101 to 400 nM. Compound CC(C)Oc1ccn2ncc(-c3cccc(C4CCCNC4)n3)c2c1 (centres unmarked) [Example 13, 5-isopropoxy-3-[6-(3-piperidyl)-2-pyridyl]pyrazolo[1,5-a]pyridine] has an IC50 of 11 to 100 nM. c1cc(-c2cnn3ccc(OCC4CC4)cc23)nc(C2CCCNC2)c1 (centres unmarked) [Example 14, 5-(cyclopropylmethoxy)-3-[6-(3-piperidyl)-2-pyridyl]pyrazolo[1,5-a]pyridine] was tested, and the IC50 was 101 to 400 nM. c1cc(-c2cnn3ccc(OCC4COC4)cc23)nc(C2CCCNC2)c1 (centres unmarked) [Example 15, 5-(oxetan-3-ylmethoxy)-3-[6-(3-piperidyl)-2-pyridyl]pyrazolo[1,5-a]pyridine] showed an IC50 of 101 to 400 nM. c1cc(-c2cnn3ccc(N4CCOCC4)cc23)nc(C2CCCNC2)c1 (centres unmarked) [Example 16, 4-[3-[6-(3-piperidyl)-2-pyridyl]pyrazolo[1,5-a]pyridin-5-yl]morpholine] gave an IC50 of 101 to 400 nM. In the case of N#Cc1ccn2ncc(-c3cccc(C4CCCNC4)n3)c2c1 (centres unmarked) [Example 17, 3-[6-(3-piperidyl)-2-pyridyl]pyrazolo[1,5-a]pyridine-5-carbonitrile], the IC50 is reported as 11 to 100 nM. Work on c1cc(-c2cnn3ccc(C4CC4)cc23)nc(C2CCCNC2)c1 (centres unmarked) [Example 18, 5-cyclopropyl-3-[6-(3-piperidyl)-2-pyridyl]pyrazolo[1,5-a]pyridine] yielded an IC50 of 11 to 100 nM. For Nc1ccn2ncc(-c3cccc(C4CCCNC4)n3)c2c1 (centres unmarked) [Example 19, 3-[6-(3-piperidyl)-2-pyridyl]pyrazolo[1,5-a]pyridin-5-amine], the IC50 was 101 to 400 nM. Compound CNc1ccn2ncc(-c3cccc(C4CCCNC4)n3)c2c1 (centres unmarked) [Example 20, N-methyl-3-[6-(3-piperidyl)-2-pyridyl]pyrazolo[1,5-a]pyridin-5-amine] has an IC50 of at most 10 nM. CCNc1ccn2ncc(-c3cccc(C4CCCNC4)n3)c2c1 (centres unmarked) [Example 21, N-ethyl-3-[6-(3-piperidyl)-2-pyridyl]pyrazolo[1,5-a]pyridin-5-amine] was tested, and the IC50 was 11 to 100 nM. Compound CS(=O)(=O)NCCC(=O)Nc1ccn2ncc(-c3cccc(C4CCCNC4)n3)c2c1 (centres unmarked) [Example 22, 3-(methylsulfonamido)-N-(3-(6-(piperidin-3-yl)pyridin-2-yl)pyrazolo[1,5-a]pyridin-5-yl)propanamide] has an IC50 of 11 to 100 nM. Work on CS(=O)(=O)NCCC(=O)Nc1ccc2c(-c3cccc(C4CCCNC4)n3)cnn2c1 (centres unmarked) [Example 23, 3-(methanesulfonamido)-N-[3-[6-(3-piperidyl)-2-pyridyl]pyrazolo[1,5-a]pyridin-6-yl]propanamide] yielded an IC50 of 101 to 400 nM. With CS(=O)(=O)NCCNC(=O)c1ccc2c(-c3cccc(C4CCCNC4)n3)cnn2c1 (centres unmarked) [Example 24, N-[2-(methanesulfonamido)ethyl]-3-[6-(3-piperidyl)-2-pyridyl]pyrazolo[1,5-a]pyridine-6-carboxamide] the IC50 was 101 to 400 nM. In the case of CS(=O)(=O)NCC(=O)N1CCCC(c2cccc(-c3cnn4ccccc34)n2)C1 (centres unmarked) [Example 25, N-[2-oxo-2-[3-(6-pyrazolo[1,5-a]pyridin-3-yl-2-pyridyl)-1-piperidyl]ethyl]methanesulfonamide], the IC50 is reported as 101 to 400 nM. With CS(=O)(=O)N1CCCC(c2cccc(-c3cnn4ccccc34)n2)C1 (centres unmarked) [Example 26, 3-[6-(1-methylsulfonyl-3-piperidyl)-2-pyridyl]pyrazolo[1,5-a]pyridine] the IC50 was 101 to 400 nM. COc1cc(-c2cnn3ccccc23)nc(C2CCCNC2)c1 (centres unmarked) [Example 27, 3-(4-methoxy-6-(piperidin-3-yl)pyridin-2-yl)pyrazolo[1,5-a]pyridine] gave an IC50 of 101 to 400 nM. Work on Clc1cc(-c2cnn3ccccc23)nc(C2CCCNC2)c1 (centres unmarked) [Example 28, 3-(4-chloro-6-(piperidin-3-yl)pyridin-2-yl)pyrazolo[1,5-a]pyridine] yielded an IC50 of 11 to 100 nM. With Clc1ccc(-c2cnn3ccccc23)nc1C1CCCNC1 (centres unmarked) [Example 29, 3-[5-chloro-6-(3-piperidyl)-2-pyridyl]pyrazolo[1,5-a]pyridine] the IC50 was 11 to 100 nM. Work on Clc1ccc(C2CCCNC2)nc1-c1cnn2ccccc12 (centres unmarked) [Example 30, 3-(3-chloro-6-(piperidin-3-yl)pyridin-2-yl)pyrazolo[1,5-a]pyridine] yielded an IC50 of 101 to 400 nM. In the case of Fc1cc(-c2cnn3ccccc23)nc(C2CCCNC2)c1 (centres unmarked) [Example 31, 3-[4-fluoro-6-(3-piperidyl)-2-pyridyl]pyrazolo[1,5-a]pyridine], the IC50 is reported as 101 to 400 nM. Fc1ccc(C2CCCNC2)nc1-c1cnn2ccccc12 (centres unmarked) [Example 32, 3-[3-fluoro-6-(3-piperidyl)-2-pyridyl]pyrazolo[1,5-a]pyridine] showed an IC50 of 11 to 100 nM. Fc1ccc(-c2cnn3ccccc23)nc1C1CCCNC1 (centres unmarked) [Example 33, 3-[5-fluoro-6-(3-piperidyl)-2-pyridyl]pyrazolo[1,5-a]pyridine] showed an IC50 of 101 to 400 nM. Clc1cc(-c2cnn3ccc(Cl)cc23)nc(C2CCCNC2)c1 (centres unmarked) [Example 34, 5-chloro-3-[4-chloro-6-(3-piperidyl)-2-pyridyl]pyrazolo[1,5-a]pyridine] gave an IC50 of 11 to 100 nM. In the case of Fc1cc(-c2cnn3ccc(Cl)cc23)nc(C2CCCNC2)c1 (centres unmarked) [Example 35], the IC50 is reported as 11 to 100 nM. FC(F)(F)c1ccn2ncc(-c3cc(Cl)cc(C4CCCNC4)n3)c2c1 (centres unmarked) [Example 36, 3-(4-chloro-6-(piperidin-3-yl)pyridin-2-yl)-5-(trifluoromethyl)pyrazolo[1,5-a]pyridine] showed an IC50 of 11 to 100 nM. With c1cc(-c2cnn3ccccc23)nc(N2CCNCC2)c1 [Example 37, 3-(6-piperazin-1-yl-2-pyridyl)pyrazolo[1,5-a]pyridine] the IC50 was 101 to 400 nM. With CNc1ccn2ncc(-c3cccc(N4CCNCC4)n3)c2c1 [Example 38, N-methyl-3-(6-piperazin-1-yl-2-pyridyl)pyrazolo[1,5-a]pyridin-5-amine] the IC50 was 11 to 100 nM. CNc1ccn2ncc(-c3cc(Cl)cc(N4CCNCC4)n3)c2c1 [Example 39, 3-(4-chloro-6-piperazin-1-yl-2-pyridyl)-N-methyl-pyrazolo[1,5-a]pyridin-5-amine] showed an IC50 of 11 to 100 nM. In the case of FC(F)(F)c1ccn2ncc(-c3cccc(N4CCNCC4)n3)c2c1 [Example 40, 3-(6-piperazin-1-yl-2-pyridyl)-5-(trifluoromethyl)pyrazolo[1,5-a]pyridine], the IC50 is reported as 11 to 100 nM. FC(F)(F)c1ccn2ncc(-c3cc(Cl)cc(N4CCNCC4)n3)c2c1 [Example 41, 3-(4-chloro-6-piperazin-1-yl-2-pyridyl)-5-(trifluoromethyl) pyrazolo[1,5-a]pyridine] showed an IC50 of 11 to 100 nM.
